Converted amounts (≈) assume the structure as drawn. Like-named read-outs stand apart in the source and are kept apart here.
Columns and labels:
[1] = system: Low Density Lipoproteins, Human Plasma; assay: LDL oxidation in a cell-free system, Cu2+ induced (Experiment 10); assay type: biochemical; settings: reference compounds, FIG. 6B
Caco-2 cells = assay: NBD-cholesterol uptake in Caco-2 cells; assay type: cell-based, human; settings: positive control, 1.25, 2.5, 5 and 10 μM, 48 hrs
Description: The objective of the experiment is to evaluate the effect of the supplement composition on cholesterol uptake in Caco-2 (human epithelial colorectal adenocarcinoma) cells. Cholesterol is both an important structural component of cell membranes and an early intermediate in hormone and bile acid biosynthesis. The supplement composition is dissolved in Dimethyl Sulphoxide (DMSO) with sonication for 15 min and centrifuged at 10,000 rpm for 10 min at room temperature to remove insoluble debris. The reference compound used in the present experiment is U-18666A (CAS: 3039-71-2), which increases cholesterol uptake by inhibiting trafficking of synthesized cholesterol. The U-18666A is dissolved in DMSO and used at a concentration of about 1.25, 2.5, 5 and 10 μM. Moreover, U-18666A is used as a positive control. The reagent used is 3-hexanoyl-NBD Cholesterol. Caco-2 cells are maintained at 60-70% confluence in complete growth medium EMEM containing 20% FBS and required antibiotic. For the assay, cells are harvested using 0.25% trypsin EDTA. The trypsinized cells are centrifuged at 1200 rpm for 5 minutes and re-suspended in growth medium. […] At the end of the incubation period, the plates are washed twice with PBS and cholesterol uptake is calculated by measuring NBD cholesterol fluorescence (Ex 485 nm, Em 535 nm). […]

rat pancreatic islets = assay: Insulin secretion in rat pancreatic islets (ELISA); assay type: cell-based; settings: 3 μM
Text: The objective of the experiment is to evaluate the effect of herbal supplement test composition on insulin secretion in rat pancreatic islets. Insulin, a peptide hormone, is secreted by pancreatic β-cells and is a key regulator in glucose homeostasis. Insulin deficiency leads to insulin-dependent (type 1) diabetes, whereas resistance to insulin action is common in non-insulin-dependent diabetes (type 2), obesity, and endocrine dysfunctions. The pancreatic β-cells are known to be sensitive to the glucose concentration in the blood. When the blood glucose levels are high they secrete insulin into the blood; when the levels are low they cease their secretion of this hormone into the general circulation. Insulin released by the β-cells is the main regulator of glucose levels.
Firstly, the herbal supplement composition is dissolved in DMSO with sonication for 15 min and centrifuged at 10,000 rpm for 10 minutes at room temperature to remove insoluble debris. Glyburide (CAS: 10238-21-8) and Glucose are used as reference compounds in the present experiment. Glyburide (CAS: 10238-21-8) is dissolved in DMSO and used at 3 μM. […]
At the end of the 1 hr incubation period, 20 μl of supernatant is gently transferred to another plate. Insulin secretion is measured using the Mercodia Rat Insulin ELISA kit according to the manufacturer's protocol. […]

LDL oxidation = LDL oxidation inhibition assay, human serum, copper sulphate (Experiment 3); assay type: biochemical
Description: The sample was filtered and the filtrate was used for the assay. […] Trolox (reference inhibitor) preparation, For trolox, a stock of […] was prepared by dissolving 2 mg of trolox in 2 ml of phosphate buffered saline. […] Further dilutions were made as required with phosphate buffered saline. The assay was carried out as per the method of Hodgson et al with modifications. In brief, the reaction mixture contained phosphate buffered saline/vehicle buffer/positive control/test sample of various concentrations and serum from fasting human. Copper sulphate solution was added to the reaction mixture to start the reaction. The reaction mix was mixed and read immediately at 234 nm using a UV-VIS spectrophotometer, for the initial reading, and incubated. After the completion of incubation period, the final absorbance was measured at 234 nm. A control reaction was carried out without test samples. The % inhibition values were calculated as follows: [formula] Where, Absorbance=Final Absorbance−Initial absorbance. IC50 was calculated using log-probit analysis.

[2] = DPPH radical scavenging activity, cell-free assay (Experiment 7); assay type: biochemical; settings: 200 μM DPPH, 30 min
Description: The objective of this experiment is to evaluate the effect of the supplement concentration on DPPH radical scavenging activity in a cell-free assay. The supplement concentration is dissolved in DMSO with sonication for 15 min and centrifuged at 10,000 rpm for 10 min at room temperature to remove insoluble debris. 2,2-Diphenyl-1-picrylhydrazyl (DPPH) is used as a reagent for this experiment. DPPH is an antioxidant reagent that is used as a free radical trap or scavenger. The color of DPPH changes from red to yellow as its scavenging activity increases. This is measured by absorbance at 517 nm. The reference compound used is Trolox (CAS: 53188-07-1). The Trolox is dissolved in DMSO and used at different concentrations. Trolox is used as positive control.
A reaction mix is made in 200 μL methanol containing 200 μM of DPPH and various concentrations of the supplement. The mixture is mixed gently with a pipette and left to stand for 30 min in the dark, after which absorbance readings are taken at 517 nm. The change in DPPH absorbance is calculated relative to the absorbance of DPPH alone i.e. without the supplement. The DMSO concentration in the assay is maintained at less than equal to 1.0%. The data is fit to a non-linear regression using Graph pad Prism (version 5.0). […]

[3] = Solubility of sample preparation upon visual inspection; assay type: physicochemical
Description: Briefly, 12.5 mg of the herbal composition 2 contents was weighed, dissolved in 312.5 μl of DMSO and the volume was made up to 10 ml with 100% methanol. Further dilutions were done in 100% methanol containing 3.125% of DMSO. […] For calculation purposes the sample was considered to be 100% soluble.
Gallic acid (reference inhibitor) preparation. For gallic acid, a stock of 200 μg/ml was prepared by dissolving 2 mg of gallic acid in 10 ml of methanol. Further dilutions were made as required with methanol.
Briefly, 29.73 mg of the Herbal composition 2 contents was weighed, dissolved in 500 μl of DMSO and the volume was made up to 25 ml with phosphate buffered saline. […] The sample was filtered and the filtrate was used for the assay. For calculation purposes the sample was considered to be 100% soluble.
Trolox (reference inhibitor) preparation, For trolox, a stock of […] was prepared by dissolving 2 mg of trolox in 2 ml of phosphate buffered saline. […] Further dilutions were made as required with phosphate buffered saline.
Briefly, 8 mg of the Herbal composition 2 contents was weighed, dissolved in 200 μl of DMSO and the volume was made up to 2 ml with 0.1M phosphate buffer pH 7.4. Further dilutions were done in 0.1M phosphate buffer pH 7.4 containing 10% of DMSO. […] For calculation purposes the sample was considered to be 100% soluble.
(§1) Gallic acid (reference inhibitor) preparation, For gallic acid, a stock of 500 μg/ml was prepared by dissolving 5 mg of gallic acid in 10 ml of 0.1M phosphate buffer pH 7.4. […] The assay was carried out as per the method of Yen et al. with modifications. In brief, the reaction mixture contained 0.1M phosphate buffer pH 7.4/vehicle buffer/positive control/test sample of various concentrations, 292.5 μM NADH, 37.5 μM NBT and 15 μM PMS. The plate was mixed and incubated at 25° C. for 5 minutes. The absorbance was measured at 560 nm in a micro-plate reader (Versamax, Molecular devices). A control reaction was carried out without test samples.

[4] = DPPH radical scavenging assay (Experiment 2); assay type: biochemical
Description: Gallic acid (reference inhibitor) preparation. For gallic acid, a stock of 200 μg/ml was prepared by dissolving 2 mg of gallic acid in 10 ml of methanol. Further dilutions were made as required with methanol. […] In brief, the total reaction mixture contained methanol/vehicle buffer/positive control/various concentrations of test solution and DPPH to a final concentration of 0.132 mM. The reaction mixture was incubated at 25° C. for 20 minutes. Following incubation the absorbance was read at 510 nm using a micro-well plate reader (Molecular devices Versamax microplate reader). A control reaction was carried out without test samples. The % inhibition values were calculated as follows: [formula] Where, Absorbance=Final Absorbance−Initial absorbance. IC50 was calculated using log-probit analysis.

[5] = Super oxide radical scavenging assay (NADH/NBT/PMS); assay type: biochemical
Description: as §1, with “samples. The % inhibition values were calculated as follows: [formula] IC50 was calculated using log-probit analysis.” for “samples.”

Question: With `O=C1O[C@H]([C@@H](O)CO)C(O)=C1O` [ascorbic acid] as the compound, how does the “Inhibition of LDL oxidation, in words” value [1] read?
Answer: significant inhibition

Question: Which “Increase in NBD-cholesterol uptake” value (Caco-2 cells) does the source give for `CCN(CC)CCO[C@H]1CC[C@@]2(C)C(=CC[C@@H]3[C@@H]2CC[C@]2(C)C(=O)CC[C@@H]32)C1` [U-18666A] here?
Answer: up to 25%

Question: For `COc1ccc(Cl)cc1C(=O)NCCc1ccc(S(=O)(=O)NC(=O)NC2CCCCC2)cc1` [Glyburide], which “Insulin secretion, effect in words” value (rat pancreatic islets) is on record?
Answer: significant increase

Question: What does the source list for `Cc1c(C)c2c(c(C)c1O)CCC(C)(C(=O)O)O2` (centres unmarked) [Trolox]?
Answer: % Inhibition (Mean ± SEM), LDL oxidation (LDL oxidation; 0.25 μM): 48.80 ± 6.21%; % Inhibition (Mean ± SEM), LDL oxidation (LDL oxidation; 0.5 μM): 73.07 ± 3.39%; % Inhibition (Mean ± SEM), LDL oxidation (LDL oxidation; 1.0 μM): 76.33 ± 0.07%; % Inhibition (Mean ± SEM), LDL oxidation (LDL oxidation; 2.0 μM): 79.04 ± 0.64%; IC50 (LDL oxidation; log-probit analysis, read-out: IC50 (95% Confidence Interval), LDL oxidation inhibition): 180 nM; EC50, DPPH scavenging activity [2]: 28 µg/mL (≈ 112 µM); Solubility upon visual inspection [3]: approximately 100%

Question: With `O=C(O)c1cc(O)c(O)c(O)c1` [Gallic Acid, Gallic acid] as the compound, how does the “% Inhibition (Mean ± SEM), DPPH” value ([4]; 0.5 μg/ml) read?
Answer: 8.71 ± 1.12%

Question: What about the “% Inhibition (Mean ± SEM), DPPH” value ([4]; 1.5 μg/ml) of the same compound?
Answer: 32.14 ± 2.42%

Question: What about the “% Inhibition (Mean ± SEM), DPPH” value ([4]; 2.5 μg/ml) of the same compound?
Answer: 60.58 ± 2.84%

Question: And the “% Inhibition (Mean ± SEM), DPPH” value ([4]; 5 μg/ml)?
Answer: 80.52 ± 0.57%

Question: And the “IC50 (95% Confidence Interval), DPPH radical scavenging” value ([4]; log-probit analysis)?
Answer: 2.09 µg/mL (≈ 12.3 µM)

Question: What about the “% Inhibition (Mean ± SEM), super oxide radical” value ([5]; 5 μg/ml) of the same compound?
Answer: 27.00 ± 3.37%

Question: And the “% Inhibition (Mean ± SEM), super oxide radical” value ([5]; 10 μg/ml)?
Answer: 32.89 ± 3.26%

Question: What about the “% Inhibition (Mean ± SEM), super oxide radical” value ([5]; 20 μg/ml) of the same compound?
Answer: 47.80 ± 4.26%

Question: What about the “% Inhibition (Mean ± SEM), super oxide radical” value ([5]; 40 μg/ml) of the same compound?
Answer: 69.50 ± 1.00%

Question: And the “% Inhibition (Mean ± SEM), super oxide radical” value ([5]; 80 μg/ml)?
Answer: 83.67 ± 0.00%

Question: What about the “IC50 (95% Confidence Interval), super oxide radical scavenging” value ([5]; log-probit analysis) of the same compound?
Answer: 17.86 µg/mL (≈ 105 µM)

Question: What about the “Solubility upon visual inspection” value [3] of the same compound?
Answer: approximately 100%

Question: What about the “Solubility upon visual inspection” value ([3]; pH 7.4) of the same compound?
Answer: approximately 100%
